Measurements: patent publication US4168206A, “Impregnated disk method for testing antifungal susceptibility” (Philadelphia College of Osteopathic Medicine, priority 1977, dated 1979)
Values after ≈ are worked out from the molar mass of the structure shown.

Tests used:
Assay type in all cases: cell-based
Cryptococcus neoformans [1] = assay: MIC by impregnated disk method, Cryptococcus neoformans; conditions: Cryptococcus neoformans
Experimental: (§1) Stock solutions of the antifungal agents to be tested are preferably prepared by diluting the antifungal agents in the proper nutrient medium. It is presently preferred to prepare dilutions in 10 ml of the proper medium to give the following final concentrations when applied to the disks (all quantities in micrograms per milliliter): 0.05, 0.08, 0.09, 0.1; 0.1 increment increases to 0.9, 1.0; 0.5 increment increases to 10.0; and 12.0, 14.0, 20.0, 25.0 and 50.0. Disks have been prepared by placing 0.05 ml of the above dilutions of antifungal agent containing medium on 6.5 mm diameter disks in 0.01 or 0.02 ml increments. The impregnated disks are then allowed to dry at a temperature preferably below about 10° C. […] The disks may also be dried by a lyophilization or freeze drying process.
(§2) To perform the tests in accordance with the present inventions, disks impregnated with various concentrations of antifungal agent and nutrient medium and a control disk impregnated only with the corresponding nutrient medium are placed on the fungus to be tested which has been applied to the non-nutrient medium. The disks are the inoculated non-nutrient medium are then incubated at a suitable temperature for a sufficient time to promote growth of the fungus. Any temperature is suitable if it will promote growth of the fungus without adversely affecting the fungus or the activity of the antifungal agent or agents tested. The time of incubation can be determined by observing the extent of growth around the control disk. […] The zones of growth or inhibition around the disks were read at 6, 12, 24, 36 and 48 hours after the disks were placed on the tested fungus.
(§3) The minimum inhibitory concentration is defined as the lowest concentration of antifungal agent which inhibits visible growth. The disks containing concentrations of antifungal agents below the minimum inhibitory concentration show circumscribed growth of the fungus around the disk. Disks containing concentrations of antifungal agent at or above the minimum inhibitory concentration show no circumscribed growth.
(§4) Clinical isolates of various fungi listed in Table 1 were obtained from different patients diagnosed as having fungal infections. The fungal inocula were prepared by using a 24-48 hour cultures grown in yeast nitrogen base containing 1% glucose and 0.15% asparagine. After centrifuging, the supernatant was removed, the sedimented cells were washed twice with sterile distilled water and a cell suspension was adjusted to 80% transmission at 520 nm using a Beckman DB-GT grating spectrophotometer.
(§5) Sterile liquified 2% purified agar was placed in petri dishes and allowed to harden. The surface of the agar was inoculated with a sterile cotton swab saturated with a suspension of an organism. The uniformly swabbed plates were then allowed to dry.
(§6) Disks were prepared using the dilutions described above for amphotericin B, nystatin and 5-fluorocytosine. 0.05 ml of the dilutions of each antifungal agent diluted with the appropriate nutrient medium were pipetted on 6.5 mm diameter disks. The disks were dried at 4° C. after each application. Control disks were also prepared.
(§7) Several test disks and a control disk were placed in each petri dish containing the inoculated agar. The disks and petri dishes were then incubated at 29° C. and the minimum inhibitory concentration of the various concentrations of the antifungal agents were read at 6, 12, 24, 36 and 48 hours.
(§8) In 10 duplicate runs with each strain tested, the variation in minimum inhibitory concentration averaged ±0.05 μg/ml.

Cryptococcus neoformans [2] = assay: MIC by broth dilution method, Cryptococcus neoformans; conditions: Cryptococcus neoformans
From the text: (§9) The preparation of the nutrient media, the antifungal agents and the fungi to be tested in the present invention are similar to those reported in S. Shadomy and A. Espinel-Ingroff, "Susceptibility Testing Of Antifungal Agents", Ch. 63, pp. 569-574 in E. H. Lennett, E. H. Spaulding, and J. P. Truant, Eds., Manual Of Clinical Microbiology, 2nd Ed., American Society for Microbiology, Washington, D.C. (1974). This publication describes the susceptibility testing of antifungal agents, namely, amphotericin B, nystatin and 5-fluoro-cytosine (5-FC), by the "broth dilution method" and the "semisolid agar dilution method". At pages 570-571, it is stated:
as §8
(§10) *Broth dilution method conducted in accordance with S. Shadomy and E.
(§11) Espinel-Ingroff, "Susceptibility Testing of Antifungal Agents", Ch. 63,
(§12) pp. 569-574 in E. H. Spaulding and J. P. Truant, Eds., Manual Of Clinical
(§13) Microbiology, 2nd Ed., American Society for Microbiology, Washington, […]

C. parapsilosis [3] = assay: MIC by broth dilution method, Candida parapsilosis; conditions: Lodderomyces parapsilosis
From the text: as §9, §8, §10, §11, §12, §13

C. parapsilosis [4] = assay: MIC by impregnated disk method, Candida parapsilosis; conditions: Lodderomyces parapsilosis
Experimental: as §1, §2, §3, §4, §5, §6, §7, §8

Saccharomyces cerevisiae [5] = assay: MIC by broth dilution method, Saccharomyces cerevisiae; conditions: Saccharomyces cerevisiae
From the text: as §9, §8, §10, §11, §12, §13

C. tropicalis [6] = assay: MIC by impregnated disk method, Candida tropicalis; conditions: Candida tropicalis; C. tropicalis; disk method; read-out: Minimum Inhibitory Concentration, Disk
Experimental: as §1, §2
(§14) The minimum inhibitory concentration is defined as the lowest concentration of antifungal agent which inhibits visible growth. […]
(§15) Several test disks and a control disk were placed in each petri dish containing the inoculated agar. The disks and petri dishes were then incubated at 29° C. and the minimum inhibitory concentration of the various concentrations of the antifungal agents were read at 6, 12, 24, 36 and 48 hours. […]

Candida albicans [7] = assay: MIC by impregnated disk method, Candida albicans; conditions: Candida albicans
Experimental: as §1, §2, §3, §4, §5, §6, §7, §8

Trichosporon sp. [8] = assay: MIC by broth dilution method, Trichosporon sp.; conditions: Trichosporon sp.; broth dilution method; read-out: Minimum Inhibitory Concentration, Broth
From the text: as §9, §8, §10, §11, §12, §13

Torulopsis glabrata [9] = assay: MIC by impregnated disk method, Torulopsis glabrata; conditions: Nakaseomyces glabratus; Torulopsis glabrata; disk method; read-out: Minimum Inhibitory Concentration, Disk
Experimental: as §1, §2, §14, §15

Geotrichum candidum [10] = assay: MIC by broth dilution method, Geotrichum candidum; conditions: broth dilution method, read-out: Minimum Inhibitory Concentration, Broth
From the text: as §9, §8, §10, §11, §12, §13

Saccharomyces cerevisiae [11] = assay: MIC by impregnated disk method, Saccharomyces cerevisiae; conditions: Saccharomyces cerevisiae
Experimental: as §1, §2, §3, §4, §5, §6, §7, §8

Trichosporon sp. [12] = assay: MIC by impregnated disk method, Trichosporon sp.; conditions: Trichosporon sp.; disk method; read-out: Minimum Inhibitory Concentration, Disk
Experimental: as §1, §2, §14, §15

C. tropicalis [13] = assay: MIC by broth dilution method, Candida tropicalis; conditions: Candida tropicalis; C. tropicalis; broth dilution method; read-out: Minimum Inhibitory Concentration, Broth
From the text: as §9, §8, §10, §11, §12, §13

Geotrichum candidum [14] = assay: MIC by impregnated disk method, Geotrichum candidum; conditions: disk method, read-out: Minimum Inhibitory Concentration, Disk
Experimental: as §1, §2, §14, §15

Candida albicans [15] = assay: MIC by broth dilution method, Candida albicans; conditions: Candida albicans
From the text: as §9, §8, §10, §11, §12, §13

Torulopsis glabrata [16] = assay: MIC by broth dilution method, Torulopsis glabrata; conditions: Nakaseomyces glabratus; Torulopsis glabrata; broth dilution method; read-out: Minimum Inhibitory Concentration, Broth
From the text: as §9, §8, §10, §11, §12, §13

Nc1nc(=O)[nH]cc1F [5-Fluorocytosine, 5-fluorocytosine] showed an MIC (Cryptococcus neoformans [1]; C. neoformans isolate 2, read-out: Minimum Inhibitory Concentration, Disk) of 15 µg/mL (≈ 116 µM), an MIC (Cryptococcus neoformans [1]; Cryptococcus neoformans isolate 1, read-out: Minimum Inhibitory Concentration, Disk) of 10 µg/mL (≈ 77.5 µM) and an MIC (Cryptococcus neoformans [2]; C. neoformans isolate 2, read-out: Minimum Inhibitory Concentration, Broth) of 12 µg/mL (≈ 93 µM). For the same compound, the MIC (Cryptococcus neoformans [2]; Cryptococcus neoformans isolate 1, read-out: Minimum Inhibitory Concentration, Broth) was 8.5 µg/mL (≈ 65.8 µM), the MIC (C. parapsilosis [3]; C. parapsilosis isolate 1, read-out: Minimum Inhibitory Concentration, Broth) was 0.8 µg/mL (≈ 6.2 µM) and the MIC (C. parapsilosis [3]; C. parapsilosis isolate 2, read-out: Minimum Inhibitory Concentration, Broth) was 2 µg/mL (≈ 15.5 µM). It also gave an MIC (C. parapsilosis [4]; C. parapsilosis isolate 1, read-out: Minimum Inhibitory Concentration, Disk) of 0.9 µg/mL (≈ 6.97 µM), an MIC (C. parapsilosis [4]; C. parapsilosis isolate 2, read-out: Minimum Inhibitory Concentration, Disk) of 1.5 µg/mL (≈ 11.6 µM) and an MIC (Saccharomyces cerevisiae [5]; S. cerevisiae isolate 2, read-out: Minimum Inhibitory Concentration, Broth) of 1 µg/mL (≈ 7.75 µM). It also gave an MIC (Saccharomyces cerevisiae [5]; Saccharomyces cerevisiae isolate 1, read-out: Minimum Inhibitory Concentration, Broth) of 2.5 µg/mL (≈ 19.4 µM), an MIC (C. tropicalis [6]) of 7.5 µg/mL (≈ 58.1 µM) and an MIC (Candida albicans [7]; isolate 1, read-out: Minimum Inhibitory Concentration, Disk) of 8.5 µg/mL (≈ 65.8 µM). It also gave an MIC (Candida albicans [7]; isolate 2, read-out: Minimum Inhibitory Concentration, Disk) of 0.3 µg/mL (≈ 2.32 µM), an MIC (Candida albicans [7]; isolate 3, read-out: Minimum Inhibitory Concentration, Disk) of 2 µg/mL (≈ 15.5 µM) and an MIC (Candida albicans [7]; isolate 4, read-out: Minimum Inhibitory Concentration, Disk) of 6 µg/mL (≈ 46.5 µM). The MIC (Candida albicans [7]; isolate 5, read-out: Minimum Inhibitory Concentration, Disk) was 0.8 µg/mL (≈ 6.2 µM), the MIC (Candida albicans [7]; isolate 6, read-out: Minimum Inhibitory Concentration, Disk) was 0.5 µg/mL (≈ 3.87 µM) and the MIC (Trichosporon sp. [8]) was 50 µg/mL (≈ 387 µM). The MIC (Torulopsis glabrata [9]) was 0.8 µg/mL (≈ 6.2 µM), the MIC (Geotrichum candidum [10]) was 3 µg/mL (≈ 23.2 µM) and the MIC (Saccharomyces cerevisiae [11]; S. cerevisiae isolate 2, read-out: Minimum Inhibitory Concentration, Disk) was 0.8 µg/mL (≈ 6.2 µM). The MIC (Saccharomyces cerevisiae [11]; Saccharomyces cerevisiae isolate 1, read-out: Minimum Inhibitory Concentration, Disk) was 1.5 µg/mL (≈ 11.6 µM), the MIC (Trichosporon sp. [12]) was 50 µg/mL (≈ 387 µM) and the MIC (C. tropicalis [13]) was 6 µg/mL (≈ 46.5 µM). The MIC (Geotrichum candidum [14]) was 2.5 µg/mL (≈ 19.4 µM), the MIC (Candida albicans [15]; isolate 1, read-out: Minimum Inhibitory Concentration, Broth) was 6.5 µg/mL (≈ 50.4 µM) and the MIC (Candida albicans [15]; isolate 2, read-out: Minimum Inhibitory Concentration, Broth) was 0.6 µg/mL (≈ 4.65 µM). For the same compound, the MIC (Candida albicans [15]; isolate 3, read-out: Minimum Inhibitory Concentration, Broth) was 3 µg/mL (≈ 23.2 µM), the MIC (Candida albicans [15]; isolate 4, read-out: Minimum Inhibitory Concentration, Broth) was 3.5 µg/mL (≈ 27.1 µM) and the MIC (Candida albicans [15]; isolate 5, read-out: Minimum Inhibitory Concentration, Broth) was 0.7 µg/mL (≈ 5.42 µM). The MIC (Candida albicans [15]; isolate 6, read-out: Minimum Inhibitory Concentration, Broth) was 0.7 µg/mL (≈ 5.42 µM) and the MIC (Torulopsis glabrata [16]) was 0.7 µg/mL (≈ 5.42 µM).
